Entries after “also recorded” stand apart in the source; their conditions may differ.
Key:
[1] = test system: V-ATPase-dependent proton transport in HEK293T cells; test: Proton pumping assay, FITC-Dextran-loaded lysosomes; format: cell-based, human; conditions: 1 h treatment
Description: Figure 4. […] (A) Model of the reversible assembly of V-ATPase. Cytosolic V1 subunits are depicted in blue and membrane Vo subunits in purple. Upon V-ATPase assembly, ATP is hydrolyzed to ADP accompanied by proton (H^+) pumping and luminal acidification (decrease in pH) (Created with BioRender). […] The amount of subunit B2 present in the membrane fraction indicates the amount of assembled V-ATPase. A representative Western blot is presented. […] Cells were mechanically lysed, and a fraction containing FITC-Dextran-loaded lysosomes was isolated by sedimentation centrifugation. Fluorescence was measured over time to assess pH-dependent quenching following addition of 1 mM magnesium-ATP (predetermined). […] Representative of 5 individual experiments with n = 3 for each is presented (mean ± SD) (D) Mammalian V-ATPase activity measured in the absence and presence of 1 μM 249C and 1 μM BafA1. Data shown are mean ± SD; n = 3. […]
4 × 10^6 HEK 293T cells were plated in 10-cm plates. […] Sample fluorescence was excited at 490 nm, and emission fluorescence at 520 nm was measured continuously in BioTek plate reader (Synergy) using Gen5 software (version 3.05). After initial fluorescence stabilization, 1 mM ATP and 2 mM MgCl2 were added to initiate ATPase activity and proton pumping into the lysosomes, which causes quenching of FITC in the lysosomal lumen. […]

MEFs KRAS G12S = test: Cell proliferation of Ras-less MEFs expressing human KRAS/BRAF; conditions: Mus musculus
Procedure: Logarithmically growing cells were plated in antibiotic-free medium supplemented with 2% fetal bovine serum at a density of 5,000 cells per well. The next day, cells were treated in triplicates with increasing doses of in-house small molecule inhibitor drugs and a DMSO vehicle control for 3 days and subsequently assessed for cell viability by measurement of ATP with CellTiter-Glo Luminescent Cell Viability Assay (Promega). Signal intensity was read on a Glomax™ 96 Microplate Luminometer (Promega) with GLOMAX software (version 1.9.3) and percent cell survival was calculated based on the reading of vehicle control cells set as 100% using Excel (2012) and GraphPad Prism (version 6)Each compound was tested a minimum of 2 times with n = 3. All cell proliferation assays (cancer cell lines or MEFs) were done in a similar way.

A549 (KRASG12S) = test: Cell viability screen, CellTiter-Glo, 72 h; format: cell-based; conditions: Homo sapiens, ATP content/viability
Procedure: (§1) Figure 1: Optimization of Potency and Drug Properties of Small Molecule Inhibitors of Ras- and Raf-mutant Cells using Viability Screens. (A) Cell viability screen of ~300 small molecules in A549 (KRASG12S), LOX IMVI (BRAFV600E), and MelJuso (HRASG13D and NRASQ61L). Cells were treated with vehicle DMSO or increasing concentrations of small molecules in triplicate for 72 h and ATP content/viability was measured using CellTiter-Glo Luminescent Cell Viability Assay. The results shown for all cell viability figures are representative of at least two independent experiments. […] (C) Evolution of the Structure Activity Relationship (SAR) and IC50s of the first (68) and last (249C | lead due to drug-like properties) compounds in the screen. (D) 249C sensitivity for a panel of 53 cancer cell lines (including lung, pancreatic, breast, ovarian, hematological/liver, prostate, colorectal cancers, glioma and melanoma). […] (F) Quantitative whole proteome analysis of the effects of small molecule treatment by mass spectrometry. A549 cells were treated with DMSO or 68 (30 μM), 226C (1μM) or 249C (1μM) for 48 h prior to analysis of proteomes with TMT labeling followed by quantification relative to the DMSO control. […]

LOX IMVI (BRAFV600E) = test: Cell viability screen, CellTiter-Glo, 72 h; format: cell-based; conditions: Homo sapiens, ATP content/viability
Procedure: as §1

468 human kinases = test: KINOMEscan profiling; format: binding; conditions: 249C at 10,000 nM
Description: The KINOMEscan™ Profiling Service consisting of 468 human kinases was used to assess 249C inhibitor activity to check for off-target effects as previously described.
Supplementary Fi g u re 12: Compound 249C assessed for off-target effects using the KIN OME scanTM screening platform. (A) Selectivity (S-score) for 249C wher e the sco re is a qu antitative measu re o f compound selectivity against human kinases. It is calculate b y dividing the number of k inases that compounds bi nd to b y the total number of distinct kinases tested, excluding mutant variants (S = number of hits / number of assa ys). 1 hit out of >400 kinases is reported for test compound (249C) = 0.002. S(35) = number of non- mutant kinases with % ctrl <35/number of non- mutant kinases; (B) Kinome interaction map for 249C at 10,000 nM. Each red dot indicates a kinase found to bind, where larger dots indicate higher affinit y interactions.
1 Tyrosine Kinase (TK) out of >400 kinases ( created in TREEspotTM ) with low affinity. This is calculated using
Dissociation constants (Kds) were determined using 249C at 30,000 nM, Hill slopes were set to - 1 and curves were fitted using a non- linear least square fit with the […]
(1 picture or pasted object on this page, not shown here)

[2] = test system: MelJuso (HRASG13D and NRASQ61L); test: Cell viability screen, CellTiter-Glo, 72 h; format: cell-based, human; conditions: ATP content/viability
Procedure: as §1

Question: `CN1CCOC(CNC(=O)C2(C)C(c3ccc(Cl)o3)C(c3ccc(F)cc3F)=NN2c2ccc(F)cc2F)C1` (stereo not shown) [Compound 249C] was tested. Which “V-ATPase-dependent proton transport (ATP-dependent fluorescence quenching)” value [1] did it give?
Answer: inhibited V-ATPase-dependent proton transport; also recorded: ATP-dependent fluorescence quenching was not observed

Question: What about the IC50 (MEFs KRAS G12S) of the same molecule?
Answer: 230 nM

Question: And the IC50 (A549 (KRASG12S))?
Answer: 73 nM

Question: What about the IC50 (LOX IMVI (BRAFV600E)) of the same molecule?
Answer: 60 nM

Question: What about the “number of kinases found to bind out of >400 kinases” value (468 human kinases) of the same molecule?
Answer: 1

Question: And the IC50 ([2]; listed as 002-249C)?
Answer: 21.9 nM

Question: And the IC50 ([2]; Homo sapiens, MEL-JUSO)?
Answer: 22 nM

Reference: publication PMC9750872, “Ras-mutant cancers are sensitive to small molecule inhibition of V-type ATPases in mice” (Nature biotechnology, 2022)
